Key:
CDK6/cyclin D1 = CDK6/cyclin D1 (Homo sapiens (Human), UniProt Q00534); test: CDK6/cyclin D1 enzymatic activity (Lance Ultra); assay type: biochemical; details: 180 minutes
Procedure: The components of the buffer included 50 mM hydroxyethylpiperazine ethanesulfonic acid solution (pH 7.5), 1 mM ethylenediaminetetraacetic acid, 10 mM magnesium chloride, 0.01% Brij-35, and 2 mM dithiothreitol.

[1] = Study on the hygroscopicity (dynamic vapor sorption); assay type: physicochemical; details: 25° C. and 80% RH
Procedure: Model of instrument: SMSDVS Advantage dynamic vapor sorption analyzer
Test conditions: A sample (10 to 15 mg) was placed in a DVS sample pan for testing.
DVS parameters: • Temperature: 25° C. • Balance: dm/dt=0.01%/min (minimum: 10 min, maximum: 180 min) • Drying: drying for 120 min at 0% RH • Test gradient of RH (%): 10% • Test gradient range of RH (%): 0%-90%-0%

[2] = tested on: human lung cancer LU-01-0393 subcutaneous xenograft tumor; test: In vivo drug efficacy study (II): human lung cancer LU-01-0393 subcutaneous xenograft tumor model; design: species or system BALB/c nude mice; details: 45 mg/kg PO QD × 3W
Excerpt: Cell line-derived xenograft (CDX) BALB/c nude mice that were female, 6- to 8-week old, weighed 17 to 20 g, and subcutaneously implanted with human tumor cell line derived from LU-01-0393 lung cancer patient were used. A total of 72 mice were needed and were purchased from Shanghai Xipuer-Bikai Experimental Animal Co., Ltd. Human lung cancer LU-01-0393 tumor (i.e., non-small cell lung cancer) was originally derived from a clinical sample of a surgical resection. It was defined as passage PO after being inoculated to nude mice, and the tumor of passage PO was re-inoculated to nude mice and was then defined as passage P1, and so forth. Passage was performed in nude mice. LU-01-0393-FP5 was obtained from the transplantation after the recovery of P4. This study would use the tumor tissue of passage FP6.
BALB/c nude mice that were female, 6- to 8-week old, and weighed approximately 17 to 20 g were used. The mice were maintained in separate ventilated cages in a special pathogen-free environment. All the cages, bedding and water were disinfected prior to use. All the animals were free to access a standard certified commercial laboratory diet. A total of 72 mice purchased from Shanghai Xipuer-Bikai Experimental Animal Co., Ltd. were used for the study. The LU-01-0393 FP6 tumor tissue was cut to 20 to 30 mm^3 and inoculated to the right back of each mouse to wait for the tumor growth. When the average tumor volume reached about 171 mm^3, the mice were randomized into groups and administered. The test compounds were orally administered daily, and the administration dosages were as shown in the above table. The tumor diameters were measured twice a week using a two-dimensional caliper. The tumor volumes were calculated by the following formula: V=0.5 a×b^2, wherein a and b were the long diameter and the short diameter of a tumor, respectively. The anti-tumor efficacy was determined by dividing the average increase of the tumor volumes of the animals treated with a compound by the average increase of the tumor volumes of the animals without being treated with the compound.

[3] = tested on: human breast cancer MCF-7 subcutaneous xenograft tumor; assay type: in vivo; details: 18.75 mg/kg PO QD × 3W
Excerpt: Cell line-derived xenograft (CDX) BALB/c nude mice that were female, 6- to 8-week old, weighed 20 g, and subcutaneously implanted with human tumor cell line derived from MCF-7 breast cancer patients were used. A total of 150 mice were needed, which were purchased from Beijing Vital River Laboratory Animal Technology Co., Ltd.
BALB/c nude mice that were female, 6- to 8-week old, and weighed approximately 20 g were used. The mice were maintained in separate ventilated cages (10 mice per cage) in a special pathogen-free environment. All the cages, bedding and water were disinfected prior to use. All the animals were free to access a standard certified commercial laboratory diet. A total of 150 mice were purchased from Beijing Vital River Laboratory Animal Technology Co., Ltd. for research. Each mouse was implanted subcutaneously with an estrogen tablets (0.18 mg/tablet, 60-day sustained release) in the left back. After 3 days, each mouse was implanted with tumor cells (10×10^6 in 0.2 mL of phosphate buffer) subcutaneously in the right back for tumor growth. Administration was started when the average tumor volume reached about 150 to 200 mm^3. The test compounds were orally administered daily, and the administration dosages were as shown in the above table. The tumor volumes were measured twice a week using a two-dimensional caliper. The volumes were expressed in cubic millimeters and calculated by the following formula: V=0.5 a×b^2, wherein a and b were the long diameter and short diameter of a tumor, respectively. The anti-tumor efficacy was determined by dividing the average increase of the tumor volumes of the animals treated with a compound by the average increase of the tumor volumes of the animals without being treated with the compound.

[4] = Solubility study at different pHs; assay type: physicochemical; details: 37° C.; for solubility at 4 h / solubility at 24 h: thermodynamic from solid; for Solubility 4 hrs / Solubility (24 hrs): LOQ = 0.0003 mg/mL
Procedure: A magnet was added to the above suspension, which was placed on a magnetic stirrer for stirring (temperature 37° C., dark). After respectively stirring for 4 hours and 24 hours, samples were taken and centrifuged, and the residual solids in the lower layers were tested by XRPD. The samples in the upper layers were filtered with a filtration membrane. The concentrations of the filtrates were determined by HPLC and the pHs were measured. After the HPLC system was equilibrated with a mobile phase, the analysis of the samples started.

[5] = aqueous buffer, pH 3.8 buffer (pH 3.80)
[6] = aqueous buffer, pH 4.5 buffer (pH 4.48)
[7] = aqueous buffer, pH 5.5 buffer (pH 5.52)
[8] = aqueous buffer, pH 6.0 buffer (pH 6.04)
[9] = simulated gastric fluid, 0.01N HCl (pH 1.99)
[10] = simulated gastric fluid, 0.1N HCl (pH 1.00)

Chain of CDK6/cyclin D1 (Q00534 whole entry): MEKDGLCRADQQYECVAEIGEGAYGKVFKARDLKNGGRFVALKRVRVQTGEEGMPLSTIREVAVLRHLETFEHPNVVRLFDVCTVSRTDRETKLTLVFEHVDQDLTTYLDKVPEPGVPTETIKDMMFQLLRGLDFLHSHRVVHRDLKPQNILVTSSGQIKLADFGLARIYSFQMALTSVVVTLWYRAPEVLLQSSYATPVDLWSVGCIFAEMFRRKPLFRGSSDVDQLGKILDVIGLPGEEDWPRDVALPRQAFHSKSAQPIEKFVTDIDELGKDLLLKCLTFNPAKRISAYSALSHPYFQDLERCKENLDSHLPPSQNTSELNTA
Chain of CDK6/cyclin D1 (P24385 whole entry partner): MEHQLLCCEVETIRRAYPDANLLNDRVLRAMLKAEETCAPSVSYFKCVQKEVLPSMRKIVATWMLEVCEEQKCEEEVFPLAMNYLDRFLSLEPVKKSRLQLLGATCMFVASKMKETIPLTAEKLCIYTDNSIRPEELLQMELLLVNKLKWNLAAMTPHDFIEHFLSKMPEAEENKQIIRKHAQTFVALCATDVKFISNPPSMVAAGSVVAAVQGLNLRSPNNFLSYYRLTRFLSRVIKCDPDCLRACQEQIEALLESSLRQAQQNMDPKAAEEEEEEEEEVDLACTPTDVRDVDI

With CC(C)c1c2cc(-c3nc(Nc4ccc(N5CCNCC5)cn4)ncc3F)ccc2nn1C.O=C(O)/C=C\C(=O)O [A crystal form of compound WX_1] the IC50 (CDK6/cyclin D1) was < 0.8 nM, the hygroscopic weight gain [1] was 1.48% and the “Tumor volume Day 0” value ([2]; Day 0) was 171 ± 26 mm^3. For the same compound, the “Tumor volume Day 7” value ([2]; Day 7) was 172 ± 33 mm^3, the “Tumor volume Day 14” value ([2]; Day 14) was 150 ± 29 mm^3 and the “Tumor volume Day 21” value ([2]; Day 21) was 175 ± 42 mm^3. For the same compound, the “Tumor volume Day 0” value ([3]; Day 0) was 153 mm^3, the “Tumor volume Day 7” value ([3]; Day 7) was 156 mm^3 and the “Tumor volume Day 14” value ([3]; Day 14) was 136 mm^3. The “Tumor volume Day 20” value ([3]; Day 20) was 98 mm^3, the “Description of Solubility” value ([4]; 0.01N HCl (pH 1.99)) was “slightly soluble” and the “Description of Solubility” value ([4]; 0.1N HCl (pH 1.00)) was “slightly soluble”. The solubility at 4 h [4, 5] was > 2500 µg/mL, the solubility at 24 h [4, 5] was > 2500 µg/mL and the solubility at 4 h [4, 6] was > 2500 µg/mL. For the same compound, the solubility at 24 h [4, 6] was > 2500 µg/mL, the solubility at 4 h [4, 7] was 110 µg/mL and the solubility at 24 h [4, 7] was 138 µg/mL. The solubility at 4 h [4, 8] was 2 µg/mL, the solubility at 24 h [4, 8] was 2 µg/mL and the “Description of Solubility” value ([4]; pH 3.8 buffer (pH 3.80)) was “slightly soluble”. For the same compound, the “Description of Solubility” value ([4]; pH 4.5 buffer (pH 4.48)) was “slightly soluble”, the “Description of Solubility” value ([4]; pH 5.5 buffer (pH 5.52)) was “sparingly soluble” and the “Description of Solubility” value ([4]; pH 6.0 buffer (pH 6.04)) was “practically insoluble”. For the same compound, the “Description of Solubility” value ([4]; pH 6.8 buffer (pH 6.80)) was “practically insoluble”, the “Solubility 4 hrs” value ([4]; pH 6.8 buffer (pH 6.80)) was “<LOQ*” and the “Solubility (24 hrs)” value ([4]; pH 6.8 buffer (pH 6.80)) was “<LOQ”. The “Description of Solubility” value ([4]; pH 7.4 buffer (pH 7.39)) was “practically insoluble”, the “Solubility 4 hrs” value ([4]; pH 7.4 buffer (pH 7.39)) was “<LOQ” and the “Solubility (24 hrs)” value ([4]; pH 7.4 buffer (pH 7.39)) was “<LOQ”. For the same compound, the “Description of Solubility” value ([4]; purified water (pH 6.05)) was “slightly soluble”, the solubility at 4 h [4, 9] was > 2500 µg/mL and the solubility at 24 h [4, 9] was > 2500 µg/mL. For the same compound, the solubility at 4 h [4, 10] was > 2500 µg/mL, the solubility at 24 h [4, 10] was > 2500 µg/mL and the solubility at 4 h ([4]; purified water (pH 6.05)) was 1110 µg/mL. For the same compound, the solubility at 24 h ([4]; purified water (pH 6.05)) was 1220 µg/mL.

Reference: US10626107B2, “Crystal form, salt type of substituted 2-hydro-pyrazole derivative and preparation method therefor” (CHIA TAI TIANQING PHARMACEUTICAL GROUP CO., LTD., priority 2016, dated 2020)
